# Measured values taken from patent US20240208972A1, “LRRK2 INHIBITORS AND USES THEREOF” (NEURON23, INC., priority 2022, published 2024).
# Assay: Human hepatocyte stability, in vitro h-Hept CLpredict
# Assay type: in vitro ADME
# Conditions: cryopreserved hepatocytes, predicted hepatic clearance, cells without asterisk, read-out: hHep Cl
# In short: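 Cryopreserved human hepatocytes at 0.5×10^6 viable cells/mL in William's E medium, compound added from 100 μM solution, sampled 0–120 min in duplicate with LC/MS/MS quantitation. t1/2 from parent disappearance converted to CLint, then scaled to predicted hepatic clearance (well-stirred model, fub assumed 1) and extraction ratio.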
row,SMILES,CLhep predicted at 1 µM [mL/min/kg]
1,"Cc1n[nH]c2c1N=C(c1c(F)cccc1F)Nc1c-2cc(N2CCO[C@@H](C)C2)nc1C [Example 40, (S)-4-(5-(2,6-difluorophenyl)-3,7-dimethyl-1,6-dihydropyrazolo[4,3-d]pyrido[4,3-f][1,3]diazepin-9-yl)-2-methylmorpholine]",< 6.3
2,"[2H]C([2H])([2H])c1n[nH]c2c1N=C(c1c(F)cccc1F)Nc1cnc(N3CCOCC3)cc1-2 [Example 32, 4-[8-(2,6-difluorophenyl)-5-(trideuteriomethyl)-3,4,7,9,12-pentazatricyclo[8.4.0.02,6]tetradeca-1(10),2(6),4,7,11,13-hexaen-13-yl]morpholine]",< 6.3
3,"Cc1n[nH]c2c1N=C(c1c(F)cccc1F)Nc1cnc(N3CCO[C@@H](C(F)(F)F)C3)cc1-2 [Example 55, (2R)-4-[8-(2,6-difluorophenyl)-5-methyl-3,4,7,9,12-pentazatricyclo[8.4.0.02,6]tetradeca-1(10),2(6),4,7,11,13-hexaen-13-yl]-2-(trifluoromethyl)morpholine]",6.3 to 14.7
4,"Cc1n[nH]c2c1N=C(c1c(F)cccc1F)Nc1c-2cc(N2CCN(CC(F)(F)F)CC2)nc1C [Example 23, 5-(2,6-difluorophenyl)-3,7-dimethyl-9-(4-(2,2,2-trifluoroethyl)piperazin-1-yl)-1,6-dihydropyrazolo[4,3-d]pyrido[4,3-f][1,3]diazepine]",6.3 to 14.7
5,"Cc1n[nH]c2c1N=C(c1c(F)cccc1F)Nc1c(F)cc(N3CCOCC3)cc1-2 [Example 30, 4-(5-(2,6-difluorophenyl)-7-fluoro-3-methyl-1,6-dihydrobenzo[d]pyrazolo[3,4-f][1,3]diazepin-9-yl)morpholine]",6.3 to 14.7
6,"Cc1n[nH]c2c1N=C(c1c(F)cccc1F)Nc1c-2cc(N2CCN(CCF)CC2)nc1C [Example 9, 8-(2,6-difluorophenyl)-13-[4-(2-fluoroethyl)piperazin-1-yl]-5,11-dimethyl-3,4,7,9,12-pentazatricyclo[8.4.0.02,6]tetradeca-1(10),2(6),4,7,11,13-hexaene]",< 6.3
7,"Cc1n[nH]c2c1N=C(c1c(F)cccc1F)Nc1ccc(N3CCOCC3)cc1-2 [Example 29, 4-(5-(2,6-difluorophenyl)-3-methyl-1,6-dihydrobenzo[d]pyrazolo[3,4-f][1,3]diazepin-9-yl)morpholine]",6.3 to 14.7
8,"Cc1n[nH]c2c1N=C(c1c(F)cccc1F)Nc1c-2cc(N2CCN(CC(F)F)CC2)nc1C [Example 19, 13-[4-(2,2-difluoroethyl)piperazin-1-yl]-8-(2,6-difluorophenyl)-5,11-dimethyl-3,4,7,9,12-pentazatricyclo[8.4.0.02,6]tetradeca-1(10),2(6),4,7,11,13-hexaene]",6.3 to 14.7
9,"Cc1n[nH]c2c1N=C(c1c(F)cccc1F)Nc1ccc(-c3cnn(C(F)F)c3)cc1-2 [Example 13, 9-[1-(difluoromethyl)pyrazol-4-yl]-5-(2,6-difluorophenyl)-3-methyl-1,6-dihydropyrazolo[4,3-d][1,3]benzodiazepine]",6.3 to 14.7
10,"Cn1nccc1-c1cc2c(cn1)NC(c1c(F)cccc1F)=Nc1c(Cl)n[nH]c1-2 [Example 59, 3-chloro-5-(2,6-difluorophenyl)-9-(1-methyl-1H-pyrazol-5-yl)-1,6-dihydropyrazolo[4,3-d]pyrido[4,3-f][1,3]diazepine]",6.3 to 14.7
11,"[2H]C([2H])([2H])c1n[nH]c2c1N=C(c1c(F)cccc1F)Nc1ccc(N3CCOCC3)cc1-2 [Example 33, 4-[5-(2,6-difluorophenyl)-3-(trideuteriomethyl)-1,6-dihydropyrazolo[4,3-d][1,3]benzodiazepin-9-yl]morpholine]",< 6.3
12,"Cc1n[nH]c2c1N=C(c1c(F)cccc1F)Nc1ccc(N3CCO[C@H](C)C3)cc1-2 [Example 7, (R)-4-(5-(2,6-difluorophenyl)-3-methyl-1,6-dihydrobenzo[d]pyrazolo[3,4-f][1,3]diazepin-9-yl)-2-methylmorpholine]",6.3 to 14.7
13,"Cc1n[nH]c2c1N=C(c1c(F)cccc1F)Nc1cnc(C#CC3(C)CCOCC3)cc1-2 [Example 17, 8-(2,6-difluorophenyl)-5-methyl-13-[2-(4-methyltetrahydropyran-4-yl)ethynyl]-3,4,7,9,12-pentazatricyclo[8.4.0.02,6]tetradeca-1(10),2(6),4,7,11,13-hexaene]",> 14.7
14,"Cc1n[nH]c2c1N=C(c1c(F)cccc1F)Nc1cnc(-c3ccn(C(F)F)n3)cc1-2 [Example 12, 13-[1-(difluoromethyl)pyrazol-3-yl]-8-(2,6-difluorophenyl)-5-methyl-3,4,7,9,12-pentazatricyclo[8.4.0.02,6]tetradeca-1(10),2(6),4,7,11,13-hexaene]",< 6.3
15,"[2H]C([2H])([2H])c1n[nH]c2c1N=C(c1c(F)cccc1F)Nc1ccc(N3CCO[C@@H](C)C3)cc1-2 [Example 34, (2S)-4-[5-(2,6-difluorophenyl)-3-(trideuteriomethyl)-1,6-dihydropyrazolo[4,3-d][1,3]benzodiazepin-9-yl]-2-methyl-morpholine]",< 6.3
16,"Cc1n[nH]c2c1N=C(c1c(F)cccc1F)Nc1c-2cc(N2CC3(CCOCC3)C2)nc1C [Example 47, 2-[8-(2,6-difluorophenyl)-5,11-dimethyl-3,4,7,9,12-pentazatricyclo[8.4.0.02,6]tetradeca-1(10),2(6),4,7,11,13-hexaen-13-yl]-7-oxa-2-azaspiro[3.5]nonane]",6.3 to 14.7

# The next lines start with the values.
row,CLhep predicted at 1 µM [mL/min/kg],SMILES
1,6.3 to 14.7,"Cc1n[nH]c2c1N=C(c1c(F)cccc1F)Nc1c-2cc(N2CCN(CC(C)(C)F)CC2)nc1C [Example 5, 5-(2,6-difluorophenyl)-9-(4-(2-fluoro-2-methylpropyl)piperazin-1-yl)-3,7-dimethyl-1,6-dihydropyrazolo[4,3-d]pyrido[4,3-f][1,3]diazepine]"
2,< 6.3,"CCc1n[nH]c2c1N=C(c1c(F)cccc1F)Nc1cnc(N3CCOCC3)cc1-2 [Example 31, 4-[8-(2,6-difluorophenyl)-5-ethyl-3,4,7,9,12-pentazatricyclo[8.4.0.02,6]tetradeca-1(10),2(6),4,7,11,13-hexaen-13-yl]morpholine]"
3,< 6.3,"Cc1n[nH]c2c1N=C(c1c(F)cccc1F)Nc1c-2cc(N2CCN(CC(C)F)CC2)nc1C (racemic) [Example 20, 8-(2,6-difluorophenyl)-13-[4-(2-fluoropropyl)piperazin-1-yl]-5,11-dimethyl-3,4,7,9,12-pentazatricyclo[8.4.0.02,6]tetradeca-1(10),2(6),4,7,11,13-hexaene]"
4,6.3 to 14.7,"Fc1cccc(F)c1C1=Nc2c(C(F)F)n[nH]c2-c2cc(N3CCOCC3)ncc2N1 [Example 10, 4-[5-(difluoromethyl)-8-(2,6-difluorophenyl)-3,4,7,9,12-pentazatricyclo[8.4.0.02,6]tetradeca-1(10),2(6),4,7,11,13-hexaen-13-yl]morpholine]"
5,6.3 to 14.7,"Cc1n[nH]c2c1N=C(c1c(F)cccc1F)Nc1c-2cc(N2CCN(CCF)C[C@H]2C)nc1C (single isomer, unassigned) [Example 18]"
6,< 6.3,"Cc1n[nH]c2c1N=C(c1c(F)cccc1F)Nc1cnc(-c3cnn(C(F)F)c3)cc1-2 [Example 1, 9-(1-(difluoromethyl)-1H-pyrazol-4-yl)-5-(2,6-difluorophenyl)-3-methyl-1,6-dihydropyrazolo[4,3-d]pyrido[4,3-f][1,3]diazepine]"
7,< 6.3,"Cc1n[nH]c2c1N=C(c1c(F)cccc1F)Nc1ccc(N3CCO[C@@H](C)C3)cc1-2 [Example 26, (S)-4-(5-(2,6-difluorophenyl)-3-methyl-1,6-dihydrobenzo[d]pyrazolo[3,4-f][1,3]diazepin-9-yl)-2-methylmorpholine]"
8,< 6.3,"Cc1n[nH]c2c1N=C(c1c(F)cccc1F)Nc1ccc(N3CCN(CCF)CC3)cc1-2 [Example 25, 5-(2,6-difluorophenyl)-9-[4-(2-fluoroethyl)piperazin-1-yl]-3-methyl-1,6-dihydropyrazolo[4,3-d][1,3]benzodiazepine]"
9,< 6.3,"Cc1n[nH]c2c1N=C(c1c(F)cccc1F)Nc1cc(F)c(N3CCOCC3)cc1-2 [Example 28, 4-[5-(2,6-difluorophenyl)-8-fluoro-3-methyl-1,6-dihydropyrazolo[4,3-d][1,3]benzodiazepine-9-yl]morpholine]"
10,6.3 to 14.7,"Cc1n[nH]c2c1N=C(c1c(F)cccc1F)Nc1c-2cc(N2CCOCC2)nc1C [Example 8, 4-[8-(2,6-difluorophenyl)-5,11-dimethyl-3,4,7,9,12-pentazatricyclo[8.4.0.02,6]tetradeca-1(10),2(6),4,7,11,13-hexaen-13-yl]morpholine]"
11,6.3 to 14.7,"[2H]C1([2H])OC([2H])([2H])C([2H])([2H])N(c2ccc3c(c2)-c2[nH]nc(C)c2N=C(c2c(F)cccc2F)N3)C1([2H])[2H] [Example 22, 2,2,3,3,5,5,6,6-octadeuterio-4-[5-(2,6-difluorophenyl)-3-methyl-1,6-dihydropyrazolo[4,3-d][1,3]benzodiazepin-9-yl]morpholine]"
12,6.3 to 14.7,"Cc1n[nH]c2c1N=C(c1c(F)cccc1F)N1CCc3nc(N4CCOCC4)cc-2c31 [Example 42, 4-[8-(2,6-difluorophenyl)-5-methyl-3,4,7,9,13-pentazatetracyclo[7.6.1.02,6.012,16]hexadeca-1(16),2(6),4,7,12,14-hexaen-14-yl]morpholine]"
13,6.3 to 14.7,"Cc1n[nH]c2c1N=C(c1c(F)cc(F)cc1F)Nc1ccc(N3CCOCC3)cc1-2 [Example 27, 4-[3-methyl-5-(2,4,6-trifluorophenyl)-1,6-dihydropyrazolo[4,3-d][1,3]benzodiazepin-9-yl]morpholine]"
